These are literature values, as cited in patent US8545882B2, “Control release formulation containing a hydrophobic material as the sustained release agent” (Nostrum Pharmaceuticals, Inc., priority 2001, dated 2013).

Where two headings read alike, the source gives them in different places. Bounds are passed on as bounds.

The conditions of data set [1]: granules 200-315 microns, any of three polymers at 10 or 20% by weight.
The conditions of data set [2]: 40% by weight glycerol palmitostearate, wet granulation, after 20 minutes.
The conditions of data set [3]: water.

Take `CC(C)Cc1ccc(C(C)C(=O)O)cc1` (stereo not shown) [ibuprofen]: the “time in which the drug was released completely” value in data set [1] was at most 30 min.

With `O=C([O-])c1ccccc1O.[Na+]` [sodium salicylate], the “drug released in water” value in data set [2] is 50%.

On to `Cn1c(=O)c2[nH]cnc2n(C)c1=O` [theophylline], for which the theophylline released in data set [3] (2% (w/w) wax coating, within one hour) is reported as 85%; in data set [3] (6% wax coating, in 5 minutes), 35%; in data set [3] (6% wax coating, within the first hour), 55%; in data set [3] (10% (w/w) wax coating, in 5 minutes) it was 28%; in data set [3] (10% (w/w) wax coating, within the first hour), 38%.
